Data on eight substances can be found in patent publication US20240424115A1, “LONG-ACTING INTERLEUKIN-15 RECEPTOR AGONISTS AND RELATED IMMUNOTHERAPEUTIC COMPOSITIONS AND METHODS” (Nektar Therapeutics, priority 2017, published 2024).

The term Kd denotes a measure of binding affinity in units of concentration. For orientation: koff means the first-order rate constant of dissociation. Read a high koff as a short-lived complex. In general, kon refers to the rate constant with which the complex forms. A high value points to faster complex formation.

The target of data set [1] is IL-15Rα:Fc. Put plainly: SPR (BIAcore), IL-15Rα:Fc captured by immobilised goat anti-human Fc, KD from kd/ka. In general terms: In SPR one partner is held on a chip, and binding of the other changes the refractive index at the surface.
Data set [2] concerns the target IL-15Rα:Fc. Put plainly: SPR (BIAcore), IL-15Rα:Fc captured by immobilised goat anti-human Fc.
For data set [3], the target named is IL-15Rα:Fc. Kind of data set: SPR (BIAcore), IL-15Rα:Fc captured by immobilised goat anti-human Fc, test article injected in 3-fold dilutions from 10 µM.
Data set [4] is described as follows: PK (MRT) of long-acting IL-15 receptor agonists (Table 2B). It is filed as in vivo. The conditions noted are these: species not stated.
Another data set relates to human PBMCs. Kind of data set: HuPBMC-pStat5 assay (flow cytometry, lymphocyte subpopulations). In kind it is cell-based. Particulars: for EC50 (ng/ml) pSTAT5 CD56bright NK: Table 3, CD56bright NK cells. As to the method: The potency of IL-15 or long acting IL-15 R agonists on various human lymphocyte subpopulations was determined by phospho-STAT5 (Y694) dose response assay. Frozen human PBMCs from multiple donors were supplied by AllCells. 1×10^6 cells/100ul were cultured in complete RPMI media for 2 hours and then incubated with the indicated concentrations (10,000ng/ml-0.001ng/ml serial dilutions) of IL-15 or conjugates for 20minutes at 37c. The cells were then fixed (using BD Cytofix) and permeabilized (using 100% pre-chilled methanol) and stained with antibodies for CD3, CD4, CD8, CD4-Tregs (CD4+CD25+Foxp3+), CD56 and phosphorylated STAT5 (Y694) before analysis by flow cytometry. Concentration-response relationships were used to calculate the EC50 values.
Assessment of in-vitro activity of exemplary long-acting IL-15 receptor agonists (e.g., Conjugates 1, 3 and 5) was carried out by investigating signaling in NK cell subsets of human PBMCs as shown in FIGS. 10A (CD56bright cells) and 10B (CD56dim cells). STAT5 phosphorylation was evaluated as previously described for assessing IL-15 signaling activity of the long acting IL-15 receptor agonists.
A second study was conducted to investigate/compare the pStat5 response of human PBMCs obtained from two donors (CD3, CD4, CD8, CD56 (bright and dim) and CD4-Tregs (CD25+Foxp3+)) to IL-15, Conjugate 1 and Conjugate 5. An […] dose response was examined using a 10-fold dilution with a dose range of 0.001-10000 ng/ml and a 20 min stimulation. Each of the test articles was diluted in IL-15 buffer+0.1% BSA.
Assessment of in vitro activity of Conjugate 1 was carried out by investigating NK and CD8 JAK/STAT signaling after treatment of human PBMCs with IL-15 or Conjugate 1 at a dose range of 0.001-10000 ng/ml. STAT5 phosphorylation was assessed as previously described.
A general note: Flow cytometry measures light scatter and fluorescence of single cells or particles in a stream.

For another data set, the target named is IL-15Rα (Homo sapiens, UniProt Q13261). Put plainly: Receptor affinity for IL-15Rα by surface plasmon resonance (BIAcore). In kind it is binding. Particulars: Table 2B; read-out: IL-15Rα KD. As to the method:
The affinities of IL-15 and exemplary long acting rIL-15 receptor agonists were measured using Surface Plasmon Resonance (“SPR”) using a BIAcore™ SPR system. Briefly, the surface of a Biacore CM5 sensor chip was activated using a 1:1 mixture of NHS: EDC to generate active NHS esters. Goat anti-human Fc antibody was covalently attached to the surface by injecting it for five minutes in 10 mM sodium acetate (pH 4). There were approximately 8000 RU of antibodies bound to the surface. Any remaining NHS ester was then quenched with ethanolamine.
At the initiation of each injection cycle, IL-15-Rα-Fc was captured on a sensor chip channel by a five-minute injection step in PBSP. Typically, 150-200 RU of receptors were bound on the surface.
Long acting rIL-15 receptor agonist test articles were diluted to 10 µM in PBS (containing 0.05% Tween 20 and 0.1 mg/ml BSA). A series of 3-fold dilutions were made and injected onto a sensor chip which was coated with IL-15Rα. The affinities were measured by determining the ka and kd rates separately, and the ratio between kd and ka was used to calculate the Kd values.
The affinities of exemplary long-acting IL-15 receptor agonists (test articles) for the IL-15 α receptor were measured and compared to IL-15. Affinity was measured by BIAcore using IL-15Rα:Fc captured by immobilized anti-Fc.
The test articles were diluted to 10 μM in PBS (containing 0.05% Tween 20 and 0.1 mg/ml BSA). A series of 3-fold dilutions were made and injected onto a sensor chip which was coated with IL-15Rα. The affinities were measured by determining the ka and kd rates separately, and the ratio between ka and kd was used to calculate the […] values.

Another data set concerns CTLL-2 cells. Kind of data set: Potency assay based on STAT5 phosphorylation in CTLL-2 cells. The conditions noted are these: for EC50 (ng/mL) CTLL-2 pSTAT5: Table 2B. In kind it is cell-based, murine. As to the method:
In the phospho-STAT5 assay following receptor binding, downstream cell signaling can then activate Signal Transducer and Activator of Transcription 5 (STAT5) through phosphorylation to promote gene expression to induce cell proliferation. The activation of phosho-STAT5 is measured in CTLL-2 cells, a murine T lymphocyte cell line, using the phospho-STAT5/total STAT5 multiplexed assay (Meso Scale Discovery, MD) in response to sample and reference treatment for ˜10 minutes.
One day prior to the assay, CTLL-2 cells were split into fresh growth medium [RPMI 1640 supplemented with 10% FBS, 10% T-cell culture supplement (catalog #354115, Corning, Inc., Tewksbury, MA), 2 mM L-glutamate, and 1 mM sodium pyruvate]. On the day of assay, cells were pre-incubated in assay medium (RPMI 1640 supplemented with 1% FBS, 2 mM L-glutamate, and 1 mM sodium pyruvate) for at least four hours, and then plated in assay medium in a 96-well plate at 50,000 cells/well. Dilutions of the test article were prepared in an appropriate buffer immediately prior to assay. Stimulation of CTLL-2 cells was initiated by the transfer of 25X test article solutions to triplicate wells containing CTLL-2 cells. Plates were incubated at 37° C., 5% CO2 for 10 minutes, and the reaction was stopped by cell lysis. Detection of phospho-STAT5 and total STAT5 protein levels in cell lysates was performed using the MSD Phospho (Tyr694)/Total STATa,b Whole Cell Lysate Kit (Meso Scale Discovery, MD).

IL-15Rα:Fc, sequence (Q13261 31-205): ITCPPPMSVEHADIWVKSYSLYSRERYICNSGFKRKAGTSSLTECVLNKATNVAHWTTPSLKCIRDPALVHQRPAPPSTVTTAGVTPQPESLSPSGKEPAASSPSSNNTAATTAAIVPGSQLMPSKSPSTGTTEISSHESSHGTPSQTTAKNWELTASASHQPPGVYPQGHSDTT
IL-15Rα, sequence (Q13261 31-205 limits assumed): as the sequence (Q13261 31-205) above

In the data set with IL-15Rα:Fc [1], “Recombinant human IL-15 (rIL-15), SEQ ID NO: 1 (from UniProt P40933 49-162) (ligand)” had a Kd of 0.258 nM. This substance also had an equilibrium dissociation constant (Kd) with IL-15Rα:Fc [2] of 0.258 nM. For the same substance, in the data set with IL-15Rα:Fc [3], the koff is 0.000149 s⁻¹ and the association rate constant (kon) came to 578000 M⁻¹ s⁻¹.

As for “[Mono-PEG2-RU-ButryALD-40K]-IL-15 (Conjugate 3) (from UniProt P40933 49-162) (ligand)”, the Kd with IL-15Rα:Fc [2] was 0.411 nM.

With “[Mono-PEG2-RU-ButryALD-40K]-IL-15 [Conjugate 3]”, the “PK (MRT)” value in data set [4] is on record as 30 h. The “EC50 (ng/ml) pSTAT5 CD56bright NK” value in the data set on human PBMCs was found to be 69.76 ng/ml. The Kd at IL-15Rα was 0.411 nM. Moreover, the “EC50 (ng/mL) CTLL-2 pSTAT5” value with CTLL-2 cells was 16.80 ng/mL.

“mono-PEG2-RU-ButryALD-20K]-IL-15 (Conjugate 4) (from UniProt P40933 49-162) (ligand)” gave a Kd with IL-15Rα:Fc [2] of 0.215 nM.

In the case of “mono-PEG2-RU-ButryALD-20K]-IL-15 [Conjugate 4]”, in the data set with IL-15Rα, the Kd was 0.215 nM. In addition, the “EC50 (ng/mL) CTLL-2 pSTAT5” value in the data set with CTLL-2 cells is listed as 6.21 ng/mL.

In the data set with IL-15Rα:Fc [2], “mono-mPEG-ButryALD-40k-IL-15 (Conjugate 5) (from UniProt P40933 49-162) (ligand)” had a dissociation constant (Kd) of 0.144 nM.

On to “mono-mPEG-ButryALD-40k-IL-15 [Conjugate 5]”, for which the “PK (MRT)” value in data set [4] is on record as 25 h. Further, in the data set with human PBMCs (CD3 cells, donor1, 20 min stimulation), the “EC50 (ng/ml)-% pSTAT5 CD3 donor1” value is given as 1.3 ng/ml. Moreover, in the data set with human PBMCs (CD3 cells, donor2, 20 min stimulation), the “EC50 (ng/ml)-% pSTAT5 CD3 donor2” value was found to be 1.7 ng/ml. In addition, the “EC50 (ng/ml)-% pSTAT5 Treg donor1” value in the data set on human PBMCs (CD4-Treg cells, donor1) was determined as 0.44 ng/ml. The “EC50 (ng/ml)-% pSTAT5 Treg donor2” value in the data set with human PBMCs (CD4-Treg cells, donor2) is given as 0.45 ng/ml. For the same substance, the “EC50 (ng/ml)-% pSTAT5 CD4 donor1” value with human PBMCs (CD4 cells, donor1) was 1.3 ng/ml. For the same substance, the “EC50 (ng/ml)-% pSTAT5 CD4 donor2” value in the data set with human PBMCs (CD4 cells, donor2) was 1.14 ng/ml. Further, in the data set with human PBMCs (CD8 cells, donor1), the “EC50 (ng/ml)-% pSTAT5 CD8 donor1” value stood at 1.4 ng/ml. In the data set on human PBMCs (CD8 cells, donor2), the “EC50 (ng/ml)-% pSTAT5 CD8 donor2” value was found to be 2.5 ng/ml. Besides, the “EC50 (ng/ml)-% pSTAT5 CD56bright donor1” value in the data set with human PBMCs (CD56bright cells, donor1) stood at 5.1 ng/ml. In addition, the “EC50 (ng/ml)-% pSTAT5 CD56bright donor2” value in the data set on human PBMCs (CD56bright cells, donor2) is given as 4.5 ng/ml. Moreover, the “EC50 (ng/ml)-% pSTAT5 CD56dim donor1” value with human PBMCs (CD56dim cells, donor1) worked out at 16.48 ng/ml. Moreover, the “EC50 (ng/ml)-% pSTAT5 CD56dim donor2” value with human PBMCs (CD56dim cells, donor2) is 27.12 ng/ml. Moreover, in the data set on human PBMCs, the “EC50 (ng/ml) pSTAT5 CD56bright NK” value worked out at 32.26 ng/ml. For the same substance, the “EC50 (ng/ml)-% pSTAT5 CD3” value with human PBMCs (Table 7 Summary Table, CD3) is reported as 1.3 ng/ml. Moreover, in the data set with human PBMCs (Table 7 Summary Table, CD4), the “EC50 (ng/ml)-% pSTAT5 CD4” value stood at 1.3 ng/ml. In addition, the “EC50 (ng/ml)-% pSTAT5 CD8” value in the data set on human PBMCs (Table 7 Summary Table, CD8) is recorded as 1.4 ng/ml. In addition, the “EC50 (ng/ml)-% pSTAT5 CD56bright” value with human PBMCs (Table 7 Summary Table, CD56bright) was 5.1 ng/ml. In the data set on human PBMCs (Table 7 Summary Table, CD56dim), the “EC50 (ng/ml)-% pSTAT5 CD56dim” value was found to be 16.48 ng/ml. The “EC50 (ng/ml)-% pSTAT5 Treg” value in the data set with human PBMCs (Table 7 Summary Table, Treg) is on record as 0.44 ng/ml. Also, in the data set with human PBMCs (Table 7 data), the “IL-15 more potent than conjugate in inducing CD3, CD4, CD8 and Treg cells” value was 5-8 fold; the “IL-15 more potent than conjugate in inducing CD56bright and CD56dim cells” value is listed as 40-60 fold. Also, the “EC50 (ng/ml)-MFI CD3 donor1” value in the data set on human PBMCs (pSTAT5 MFI, CD3 cells, donor1) came to 84.73 ng/mL. Further, the “EC50 (ng/ml)-MFI CD3 donor2” value in the data set with human PBMCs (pSTAT5 MFI, CD3 cells, donor2) stood at 154.2 ng/mL. Further, the “EC50 (ng/ml)-MFI Treg donor1” value in the data set on human PBMCs (pSTAT5 MFI, CD4-Treg cells, donor1) turned out to be 3.5 ng/mL. The “EC50 (ng/ml)-MFI Treg donor2” value in the data set with human PBMCs (pSTAT5 MFI, CD4-Treg cells, donor2) is 5.4 ng/mL. Moreover, the “EC50 (ng/ml)-MFI CD4 donor1” value in the data set with human PBMCs (pSTAT5 MFI, CD4 cells, donor1) turned out to be 84.21 ng/mL. The “EC50 (ng/ml)-MFI CD4 donor2” value with human PBMCs (pSTAT5 MFI, CD4 cells, donor2) was determined as 98.18 ng/mL. For the same substance, the “EC50 (ng/ml)-MFI CD8 donor1” value in the data set on human PBMCs (pSTAT5 MFI, CD8 cells, donor1) amounted to 53.7 ng/mL. For the same substance, the “EC50 (ng/ml)-MFI CD8 donor2” value with human PBMCs (pSTAT5 MFI, CD8 cells, donor2) amounted to 204.6 ng/mL. The “EC50 (ng/ml)-MFI CD56bright donor1” value with human PBMCs (pSTAT5 MFI, CD56bright cells, donor1) is 24.86 ng/mL. For the same substance, the “EC50 (ng/ml)-MFI CD56bright donor2” value with human PBMCs (pSTAT5 MFI, CD56bright cells, donor2) is 56.9 ng/mL. The “EC50 (ng/ml)-MFI CD56dim donor1” value in the data set on human PBMCs (pSTAT5 MFI, CD56dim cells, donor1) turned out to be 97.51 ng/mL. In addition, in the data set with human PBMCs (pSTAT5 MFI, CD56dim cells, donor2), the “EC50 (ng/ml)-MFI CD56dim donor2” value stood at 283.4 ng/mL. The dissociation constant Kd with IL-15Rα was found to be 0.144 nM. Further, the “EC50 (ng/mL) CTLL-2 pSTAT5” value in the data set on CTLL-2 cells is 1.45 ng/mL.

Consider “recombinant human IL-15: recombinant human IL-15 obtained from PeproTech, served as the control in the CTLL-2 assay [reference compound]”, for which the “average EC50, STAT5 phosphorylation in CTLL-2 cells” value in the data set with CTLL-2 cells (10-minute treatment, control) worked out at 0.00027 µg/mL.
